From article PMC9332833 (Cancers, 2022)

Tests used:
[1] = tested on: CD34+ cells from CML patients; assay: MTT viability assay, CML CD34+ cells; type: cell-based; details: Homo sapiens, 48 h
Experimental: Blood samples were taken (venipuncture, EDTA-K2 Vacutainer tubes, Becton Dickinson, Franklin Lakes, NJ, USA) from 8 chronic phase CML patients (CML1–CML8; 4 men and 4 women, aged 39–79) diagnosed at the Department of Hematology, University Clinical Center, Medical University of Warsaw, following their written consent. The diagnosis was carried out by qualified clinical staff based on an interview, blood parameters and molecular tests detecting BCR-ABL1 (transcript b3a2). Peripheral blood mononuclear cells were immediately isolated from the fresh blood sample using standard protocol (Supplementary Methods). […]
Cells were seeded in 96-well plates; after 24 h, medium with the appropriate drug concentration was added to each well. […] Absorbance was read using an iMark Microplate absorbance reader (Bio-Rad, Hercules, CA, USA). Results were calculated relative to cells treated with DMSO only.
[…] Next, we isolated CD34+ cells (EasySep™ Human CD34 Positive Selection Kit II, StemCell Technologies, Vancouver, Canada), counted them and assessed viability with Muse Cell Analyzer (Merck Millipore, Burlington, MA, USA). […] The purity of the live CD34+ fraction was assessed by flow cytometry with anti-human CD34-APC antibody, compared with an appropriate isotype control (Biolegend, San Diego, CA, USA), and propidium iodide (Sigma-Aldrich, St. Louis, MO, USA). […]

K562 cells [2] = assay: Immunoblotting of CML signaling proteins; type: cell-based, human; details: 5 µM
Experimental: K562 cells were plated at a concentration of 1–2 × 10^5 cells/mL in a 6-well plate. After 24 h of pre-incubation, BK124.1 or DMSO was added and cells were incubated for a specified time, after which cells were lysed with RIPA buffer (Sigma-Aldrich, St. Louis, MO, USA) and supplemented with c0mplete Protease Inhibitor (Roche, Basel, Switzerland) and PhosSTOP (Roche, Basel, Switzerland). Protein concentration was measured using Pierce BCA Protein Assay Kit (Thermo Fisher Scientific, Waltham, MA, USA) and adjusted to contain equal amount of protein (20 µg) in equal volume. Protein lysates were separated by SDS-PAGE electrophoresis (TGX StainFree, Bio-Rad, Hercules, CA, USA) and transferred onto the PVDF membranes (AppliChem GmbH ITW Reagents, Darmstadt, Germany). Membranes were blocked with 5% non-fat powdered milk, then incubated with primary antibodies overnight at 4 °C followed by HRP-conjugated antibodies (Supplementary Methods). Blots were developed using Clarity Western ECL Substrate and analyzed with ChemiDoc XRS+ (Bio-Rad, Hercules, CA, USA). Protein levels normalized to controls were determined using ImageJ software.
K562 cells were plated at a concentration of 1.5 × 10^5 cells/mL in a 6-well plate. After 24 h pre-incubation, BK124.1 in DMSO was added and incubated for the specified time. Next, cytosolic and nuclear cell fractions were separated as described. […]

[3] = Toxicity in Balb/c nude mice; type: in vivo
Experimental: […] The compound blood concentration was measured 15 min, 6, 12, and 24 h post-injection. For each time point, 4 mice were sacrificed. BK124.1 concentration in the bloodstream was analyzed using mass spectrometry. Toxicology was assessed by examining physiological and morphological changes at the injection site, the appearance of internal organs (liver, heart, kidneys, and spleen), blood tests, body mass, and animal behavior.

K562 cells [4] = tested on: K562 cells; parameters: method as in PMID 26902600, PMID 31487824; details: chronic myelogenous (CML) K562 cells from blast crisis; cited from earlier work
HUVEC = tested on: HUVEC; parameters: method as in PMID 26902600, PMID 31487824; details: cited from earlier work

Question: For `CCC12C(=O)C(CC)(C(c3ccccc3)=C1c1ccccc1)C1C(=O)N(CC(O)CNC(C)C)C(=O)C12` (stereo not shown) [BK124.1, 4-[2-hydroxy-3-(propan-2-ylamino)propyl]-1,7-diethyl-8,9-diphenyl-4-azatricyclo [5.2.1.02,6]dec-8-ene-3,5,10-trione], which IC50 [1] is on record?
Answer: 1.5 µM

Question: And the “Level of BCR-ABL1, STAT5, AKT, mTOR and NF-κB proteins” value (K562 cells [2]; first changes after 4 and 8 h)?
Answer: decrease in the level

Question: What about the “Level of FOXO3A and p21waf1/cip1 proteins” value (K562 cells [2]; from 4 h, maximum after 8 h, mainly nuclear fraction) of the same compound?
Answer: increase in the level

Question: What about the “Toxic effects in weight and internal organs' appearance” value ([3]; IP 40 mg/kg) of the same compound?
Answer: some minor toxic effects

Question: What about the “Toxicity at the injection site” value ([3]; intravenous administration) of the same compound?
Answer: some signs of local toxicity in the tail

Question: And the “Toxicity towards human leukemia cells” value (K562 cells [4])?
Answer: selectively toxic

Question: What about the “Toxicity to normal cells” value (HUVEC) of the same compound?
Answer: non-toxic
